Results taken from patent USRE39682E1, “Farnesyl derivatives and pharmaceutical compositions containing them” (Ramot at Tel Aviv University Ltd., priority 1993, dated 2007).
pEC50, pKi: −log10 of the molar value.

Key:
[1] = target: T1, prenylated protein methyltransferase (PPMTase) (Rattus norvegicus, UniProt Q9WVM4); assay: Methylation of AFC by PPMTase in rat cerebellar synaptosomal membranes; format: biochemical; conditions: for pKi: Table II, given as range, read-out: Ki
T1 construct: from tissue; host or cells: rat cerebellum, synaptosomal membranes
T1 sequence (Q9WVM4 whole entry): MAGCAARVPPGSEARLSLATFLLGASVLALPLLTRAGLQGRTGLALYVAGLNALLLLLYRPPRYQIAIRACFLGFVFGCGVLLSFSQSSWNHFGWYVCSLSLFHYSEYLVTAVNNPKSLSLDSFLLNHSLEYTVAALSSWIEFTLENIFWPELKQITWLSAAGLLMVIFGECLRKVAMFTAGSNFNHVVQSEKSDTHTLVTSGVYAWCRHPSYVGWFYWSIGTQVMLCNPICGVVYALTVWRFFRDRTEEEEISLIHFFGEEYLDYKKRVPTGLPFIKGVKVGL
Text: As a substrate for methylation served AFC and as the donor of methyl served [methyl-H^3] labelled AdoMet. As a source of the enzyme prenylated protein methyltransferase (PPTMase) served rat cerebellar membranes which are known to be membranes enriched with this enzyme (Ben-Baruch, Biochem. Biophys. Res. Commun., 195, 282-288. (1993)).
Charles River adult male rats were used for preparation of cerebellar synaptosomal membranes. Cerebella were removed after decapitation and homogenized in 0.32M sucrose containing 50 mM Tris-HCl pH 7.4, 3 mM EDTA, 1 mM EGTA, 5 unit/ml aprotinin and 5 μg/ml pepstatin (buffer A) to yield 10% (w/v) homogenates. Nuclear fractions were obtained by 10 min. 600×g centrifugation and synaptosomal fractions were obtained by 20 mins. 14,500×g centrifugation. Membranes of the various cell types used were prepared in the above buffer A by a 60 min. spin at 100,000×g.
Pellets were resuspended in the homogenization buffer and stored at −70° C. Methylation assays were performed at 37° C. in 50 mM Tris-HCl buffer pH 7.4, using 75-125 μg protein, 25 μM [methyl-^3H]AdoMet ([…] in DMSO) in a total volume of 50 μl. DMSO concentration in all assays was 4%.
Reactions were terminated after 10 min. by adding 500 μl chloroform methanol (1:1) and a subsequent addition of 250 μl H2O, mixing them and subsequently by phase separation. A portion of 125 μl of the chloroform phase was dried down at 40° C. and 200 μl of 1M NaOH/1% SDS solution were added thereto. The [^3H]methanol thus formed was counted by the vapor phase equilibrium method as described previously (Hakiai et al., Cell Mol. Neurobiol., 11, 415-431, (1991); Lenner et al., Cell Mol. Neurbiol., 12, 333 and 3351, (1992); Ben-Baruch et al., Biochem. Biophy. Res. Commun., 195, 282-288, (1993)). Typical background counts (i.e. counts of methylation with no AFC added) were 50-100 cpm while typical methylation counts with AFC as a substrate yielded 500 to 6000 cpm. Assays were performed in triplicate and background counts subtracted. Methylation of endogenous substrates, in intact cells, and [α-^32P] GTP-blot overlay assays and gel electrophoreses were performed as detailed previously (Hakiai et al., supra (1991); Lenner et al., supra (1993)).

[2] = tested on: ras methylation; conditions: ras-transformed NTH3T3 cells; cited from earlier work
[3] = tested on: ras-transformed NTH3T3 cells; conditions: cited from earlier work
[4] = tested on: platelet aggregation; conditions: cited from earlier work
[5] = tested on: neutrophils chemotaxis; conditions: cited from earlier work
[6] = tested on: Ha-ras-transformed rat1 cells; assay: Growth of ras-transformed rat1 cells (cell counting); format: cell-based, rat; conditions: for pEC50: Rattus norvegicus, 168 h, day 7 of drug treatment, estimated from dose response curves, read-out: Inhibition of rab-transformed rat1 cell growth EC50; for effects on cell growth of ras-transformed rat1 cells: drug concentrations up to 200 μM
Text: The cell lines employed were rat1, -EJ, which are rat1 cells stably expressing Val- 12 activated human Ha-ras gene (Land H. et al., Nature, 304, 596-602, (1983)); V-raf-3T3, which are 3T3 cells stably expressing the V-raf gene (Xu, N., et al., Proc. Natl. Acad. Sci., 90, 6741-6745); RB-22, which are 3T3 cells stably expressing the rat Erb-B2 gene (Peles, et al., EMBO J., 10, 2077-2086 (1991)) CO6O cells (SV40-CHO), which are CHE cells stably expressing the SV-40 T-antigen gene (Lavi, Proc. Natl. Acad. Sci., 78, 6144-6148 (1981)); human endometrial carcinoma cell line HEC1A, which are cells that express activated K-ras (Enomoto T., Cancer Res., 50, 6139-6145; mouse B16F10 melanoma cells, rat pheochromocytoma PC12 cells, […] cells CHE and COS cells.
HEC1A, V-raf-3T3 and SV40-CHE cells were grown in Dulbecco's modified Eagle medium (DMEM) containing 10% fetal calf serum (FCS), 4 mM L-glutamine, 10 μg/ml streptomycin and 10 U/ml penicillin. Rat1 and -EJ cells were grown in the same medium except that it was supplemented with 12.5 U/ml nyostatin. RB-22 cells were grown in modified DMEM (1 mM sodium pyruvate, 20 mM sodium bicarbonate)/10% FCS containing 4 mM L-glutamine, […] streptomycin, 10 U/ml penicillin. PC-12 cells were grown in DMEM 15% FCS/5% horse serum and the above noted antibiotics.
HEC1A cells were plated in 24 well plates at a density of 5×10^3 cells per well and fed with 1 ml of medium. The cells were grown at 37° C. in a humidified atmosphere of 95%/5% air/CO2. All other cell types employed were plated in 24 well plates at a density of 2×10^3 cells per well and fed with the appropriate medium.
Cultures were treated with farnesyl derivatives or with solvent either 3 hrs following plating or one day after plating as indicated. […] Control cultures received 0.1% DMSO only. Cultures were fed on days 6, 7 and 9 of the experiment with the drugs or with solvent-containing media.
Cells were counted following 3, 7 and 10 days of beginning of treatments with drugs. For counting, cells were detached from plates with trypsin/EDTA, and collected by a low speed spin in the presence of DMEM/10% FCS. The pelleted cells were resuspended in a small volume of DMEM/10% FCS and counted under the microscope. Viability of cells was estimated by staining with (3-(4,5-dimethylthiosol-2-yl)-2,5-diphenyltetrazolium bromide (MTT) and microscopic examination of the stained and unstained cells, or spectrophotometric estimation (OD490, 590) of the total stain in each well. Non viable cells were estimated by the trypan blue exclusion method.
Cells were plated at a density 2×10^3/well and received either solvent or drugs one day later. Following 3, 7, or 10 days of the drugs-treatment as described above, cells were collected and the number of cells in each well was estimated by direct counting. […] The effect was apparent after a delay of at least three days. About 40-60% inhibition of cell growth was induced either by FTA or by FTS observed on days 7 and 10 of the treatment.

[3H-methyl]ester formed ([1]; 100 μM AFC alone as substrate) | [3H-methyl]ester formed ([1]; 200 μM of the substance alone as substrate) | serves as substrate for PPMTase methylation [1] | pKi [1] | SMILES | inhibition of ras methylation [2] | inhibition of cell growth [3] | inhibition of platelet aggregation [4] | inhibition of neutrophils chemotaxis [5] | pEC50 [6] | effects on cell growth of ras-transformed rat1 cells [6]
3200 ± 130 cpm/assay | 3700 ± 150 cpm/assay |  |  | CC(=O)N[C@@H](CSC/C=C(\C)CC/C=C(\C)CCC=C(C)C)C(=O)O (stereo in doubt) [AFC, N-acetyl-trans-trans-farnesyl-L-cysteine] | can inhibit ras methylation | does not inhibit their growth | inhibit | inhibit |  | 
 |  | do not serve as substrates | 4.09 to 4.18 | CC(C)=CCC/C(C)=C/CC/C(C)=C/CSc1ccc(N)cc1C(=O)O [5-amino FTS] |  |  |  |  | < 3.70 | not active
 |  | do not serve as substrates | 5.02 to 5.18 | CC(C)=CCC/C(C)=C/CC/C(C)=C/CNc1ccc(Cl)c(C(=O)O)c1 [NFCB, 2-chloro-5-farnesylaminobenzoic acid] |  |  |  |  | 4.40 to 4.70 | effects similar to those observed with FTS and FTA
